Measured values: patent publication US20220275025A1, “BONE REMODELING REGULATORY PEPTIDES AND APPLICATION THEREOF” (THE SECOND XIANGYA HOSPITAL OF CENTRAL SOUTH UNIVERSITY, priority 2019, published 2022)
Square brackets hold non-standard residues; d marks the D form. Ends that are not written are not given here. Peptide text beside a SMILES is read from it. Hyp = O=C(O)[C@@H]1C[C@@H](O)CN1

Tests used:
Primary BMMs [1] = assay: Cytotoxicity experiment, CCK-8 kit; format: cell-based, mouse; conditions: 0, 1, 10, 100, 200, 500, 800, 1000, and 1500 μg/mL, 24 and 48 hours
Method: (§1) 1) Bilateral femurs and tibias of wild-type female mice were aseptically isolated, and bone marrow cells were obtained by repeatedly washing bone marrow cavities with culture medium. After culturing in α-MEM complete medium containing M-CSF (30 ng/mL) for 24-hour, nonadherent cells were suctioned, centrifuged, and resuspended, and then cultured in the α-MEM complete medium containing M-CSF (30 ng/mL) for 3 days to obtain adherent mouse primary bone marrow mononuclear macrophages (osteoclast precursor cells). Osteoclast precursor cells were conducted by M-CSF (50 ng/mL) and RANKL (100 ng/mL) to obtain osteoclast and identified by TRAP staining (FIG. 1A). The expression of the collagen receptor OSCAR on osteoclast precursor cells and osteoclasts were determined by immunofluorescence (FIG. 1B) and Western blot (FIG. 1C).
1) Primary BMMs were cultured in vitro according to the method in Part 1 above, the A1-1/A1-4-1 collagen peptide was taken as an example for carrying out the cytotoxicity experiment. Primary BMMs were treated with different concentrations (0, 1, 10, 100, 200, 500, 800, 1000, and 1500 μg/mL) of collagen peptide for 24 and 48 hours, and the cytotoxicity was determined by CCK-8 kit.

mOSCAR = molecular target: T1, mOSCAR (Mus musculus, UniProt Q8VBT3); assay: Solid-phase binding experiment of collagen peptides with mOSCAR-His fusion protein; conditions: peptide coated on 96-well plate, mOSCAR-His 37° C. 3 hours, absorbance at 492 nm
T1 construct: The extracellular domains of the mOSCAR were amplified by RT-PCR and inserted with expression vectors of His tag fusion proteins; made in house; host or cells: HEK293T cells
T1 sequence (Q8VBT3 19-231 limits assumed): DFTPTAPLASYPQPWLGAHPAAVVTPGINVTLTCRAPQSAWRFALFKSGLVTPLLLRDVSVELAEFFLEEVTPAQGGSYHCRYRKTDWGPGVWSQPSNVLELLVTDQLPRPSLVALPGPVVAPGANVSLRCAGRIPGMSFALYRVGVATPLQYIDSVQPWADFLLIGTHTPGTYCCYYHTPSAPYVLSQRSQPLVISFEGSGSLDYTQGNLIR
Method: 1) The extracellular domains of the mOSCAR were amplified by RT-PCR and inserted with expression vectors of His tag fusion proteins. Then, the constructed vectors were transfected into HEK293T cells for expression, and mOSCAR-His fusion protein were purified by ion-exchange chromatography and molecular sieve chromatography.
2) Collagen peptides were dissolved with 10 mM acetic acid and wrapped to a 96-well microtitration plate overnight. After being sealed in phosphate buffer containing bovine serum albumin at room temperature for 1 hour, mOSCAR-His fusion protein was added and incubated at 37° C. for 3 hours. Then, horseradish peroxidase-labeled goat anti-mouse IgG antibody that capable of reacting specifically with His added and incubated at room temperature for 1 hour. The binding mOSCAR-His fusion protein was detected by O-phenylenediamine dihydrochloride. The reaction was terminated by 3 M H2SO4, and the absorbance at 492 nm was measured. It was confirmed that the type II collagen peptide (OSC^pep) and 4 segments of type I collagen peptides (A1-1, A1-2-1, A1-4-1, A1-5-3) could bind to the mOSCAR (FIG. 5).

Primary pre-osteoblasts = assay: Osteoblast differentiation, ALP staining; format: cell-based, mouse
Method: 2) After skulls of the wild-type mice were aseptically isolated, cells were isolated by collagenase digestion and nucleated cells were obtained by density gradient centrifugation. Cells were induced to differentiate into osteoblasts by medium containing 10 mM β-sodium glycerophosphate, 50 μM vitamin C and 10^−7 M dexamethasone and identified by ALP staining (FIG. 1D). The expression of the collagen receptor OSCAR on pre-osteoblasts induced for 0th, 7th, 14th, 21st, and 35th day and MLO-Y4 bone cell lines was determined by immunohistochemistry (FIG. 1E) and Western blot (FIG. 1F).
4) Primary pre-osteoblasts were cultured in vitro according to the method in Part 1 above. Then, cells were treated with different concentrations of 5 segments of collagen peptides, and induced to differentiate into osteoblast by 10 mM […], 50 μM vitamin C and 10^−7 M dexamethasone at the same time. The effect of the collagen peptides on osteoblast differentiation was verified by ALP staining. It was confirmed that the bone remodeling regulatory peptides could inhibit osteoblast differentiation and bone formation at low concentration and promote osteoblast differentiation and bone formation at high concentration (FIG. 6C). […]

Primary BMMs [2] = assay: Osteoclast differentiation induced by M-CSF and RANKL, TRAP staining; format: cell-based, mouse
Method: as §1
2) Primary BMMs were treated with different concentrations of 5 collagen peptides, and induced to differentiate into osteoclasts by M-CSF and RANKL. The effect of different concentrations of collagen peptides on osteoclast differentiation was verified by TRAP staining. It was confirmed that all of the bone remodeling regulatory peptides could promote osteoclast differentiation at low concentration and inhibit osteoclast differentiation at high concentration (FIG. 6A).

osteoclasts = assay: Bone resorption of osteoclasts in peptide-primary BMMs-bone slice culture system, WGA staining; format: cell-based, mouse
Text: 3) Different concentrations of bone remodeling regulatory peptides-primary BMMs-bone slice culture system was constructed by using the above-mentioned method, and the cells in the system were induced to differentiate into osteoclasts by M-CSF and RANKL at the same time. The effect of collagen peptides on bone resorption of osteoclasts was verified by wheat germ agglutinin (WGA) staining. It was confirmed that all of the bone remodeling regulatory peptides could promote bone resorption of osteoclasts at low concentration and inhibit bone resorption of osteoclasts at high concentration (FIG. 6B).

binding to the mOSCAR (mOSCAR)	Compound	cytotoxicity (Primary BMMs [1])	further results
could bind	C[C@H](NC(=O)CN)C(=O)N1C[C@H](O)C[C@H]1C(=O)NCC(=O)N1CCC[C@H]1C(=O)N[C@@H](CCC(N)=O)C(=O)NCC(=O)N[C@@H](Cc1ccccc1)C(=O)N[C@@H](CCC(N)=O)C(=O)O [A1-1, Gly-Ala-Pro-Gly-Pro-Gln-Gly-Phe-Gln] (H-GA[Hyp]GPQGFQ-OH)	no toxic effect	–
could bind	C[C@H](NC(=O)[C@H](Cc1ccccc1)NC(=O)CNC(=O)[C@H](C)NC(=O)[C@@H]1CCCN1C(=O)CNC(=O)[C@@H]1C[C@@H](O)CN1C(=O)[C@@H]1CCCN1C(=O)CN)C(=O)O [A1-4-1, Gly-Pro-Pro-Gly-Pro-Ala-Gly-Phe-Ala] (H-GP[Hyp]GPAGFA-OH)	no toxic effect	–
could bind	Gly-Ala-Pro-Gly-Ala-Pro-Gly-Ser-Gln (GA[Hyp]GA[Hyp]GSQ) [A1-2-1]	–	–
could bind	Gly-Ala-Pro-Gly-Pro-Ala-Gly-Phe-Ala (GA[Hyp]GPAGFA) [OSC^pep]	–	concentration that inhibits osteoblast differentiation and bone formation (Primary pre-osteoblasts): < 8000 µg/mL; concentration that promotes osteoblast differentiation and bone formation (Primary pre-osteoblasts): ≥ 8000 µg/mL; concentration that inhibits osteoclast differentiation (Primary BMMs [2]; high concentration): ≥ 8000 µg/mL; concentration that promotes osteoclast differentiation (Primary BMMs [2]; low concentration): < 8000 µg/mL; concentration that inhibits bone resorption (osteoclasts; high concentration): ≥ 8000 µg/mL; concentration that promotes bone resorption (osteoclasts; low concentration): < 8000 µg/mL
could bind	Gly-Pro-Pro-Gly-Ala-Thr-Gly-Phe-Pro (GP[Hyp]GATGFP) [A1-5-3]	–	–
